Assay: in vitro
Conditions: human, hela cells, % viability

| SMILES | viability at 28.5 h, 10 µM |
| --- | --- |
| COC(=O)c1c(NC(=O)CCCC(=O)O)sc2c1CCCCC2 [CBK265393] | 85.4% |
| CCCc1cc(C(=O)OC)c(NC(=O)C2CC=CCC2C(=O)O)s1 (stereo not drawn) [CBK265397] | 117% |
| Cc1nn(C)cc1CN(C)S(=O)(=O)c1cccc([N+](=O)[O-])c1 [CBK265399] | 79.9% |
| CCOc1ccccc1N1C(=O)CC(Sc2nc(-c3ccccc3)c3cc(Cl)ccc3n2)C1=O (stereo not drawn) [CBK265405] | 116% |
| COc1ccc(N2C(=O)c3ccccc3NC2c2cccc(OCC(=O)Nc3ccccc3)c2)cc1 (stereo not drawn) [CBK265406] | 108% |
| CCOC(=O)CN1C(=O)S/C(=C/c2cc(C)n(-c3ccc(S(N)(=O)=O)cc3)c2C)C1=O [CBK265410] | 94% |
| CCOC(=O)c1cc(C)sc1NC(=O)CCC(=O)O [CBK265412] | 108% |
| COc1ccc(N2CCN(c3nc(NCCO)nc(N4CCOCC4)n3)CC2)cc1 [CBK265413] | 99.3% |
| O=C(Nc1nc2nccc(-c3ccccc3)n2n1)c1cccc([N+](=O)[O-])c1 [CBK265414] | 87.6% |
| Cc1cc(N2C(=O)c3ccc(C(=O)O)cc3C2=O)ccc1NC(=O)c1cccs1 [CBK265415] | 92.8% |
| CCOC(=O)c1cc(C(C)C)sc1NC(=O)C1C2C=CC(C2)C1C(=O)O (stereo not drawn) [CBK265417] | 95.4% |
| COC(=O)c1ccc(C(=O)OC)c(NC(=O)C2CCCCC2C(=O)O)c1 (stereo not drawn) [CBK265422] | 88% |
| Cc1ccc(NC(=O)/C=C/c2ccc3c(c2)OCO3)c(NC(=O)/C=C/c2ccc3c(c2)OCO3)c1 [CBK265423] | 114% |
| CC(=O)Nc1cccc(OCC(=O)Nc2ccc(C)c(C)c2)c1 [CBK265429] | 95.9% |
| CCc1c(C)sc(NC(=O)C2C3C=CC(C3)C2C(=O)O)c1C(N)=O (stereo not drawn) [CBK265433] | 97.9% |
| COC(=O)c1sccc1NC(=O)c1ccncc1 [CBK265438] | 85.4% |
| O=C(COc1ccc2ccccc2c1)NCCN1CCOCC1 [CBK265444] | 107% |
| O=C(/C=C/c1ccc2c(c1)OCO2)Nc1ccc(S(=O)(=O)Nc2cnc3ccccc3n2)cc1 [CBK265445] | 86.9% |
| O=C(/C=C/c1c(F)cccc1Cl)Nc1nnn[nH]1 [CBK265447] | 102% |
| Cc1oc(CC(C)C)c(CN2CCCCC2)c1C(=O)O [CBK265448C] | 113% |
| CC(Oc1cccc(Cl)c1)C(=O)Nc1ncccn1 (stereo not drawn) [CBK265450] | 90.2% |
| CC1=C(C)CC(C(=O)NC(C)CCc2ccccc2)C(C(=O)O)C1 (stereo not drawn) [CBK265452] | 99.9% |
| O=C(O)C1C2C=CC(C2)C1C(=O)NCc1ccco1 (stereo not drawn) [CBK265453] | 92.7% |
| O=C(Nc1nc2ccccc2[nH]1)C1c2ccccc2Oc2ccccc21 [CBK265454] | 98.9% |
| O=C(CSc1nnc2sc3ccccc3n12)N1c2ccccc2Sc2ccccc21 [CBK265457] | 89% |
| Cc1ccc(-c2cc(C(=O)O)[nH]n2)cc1 [CBK265462] | 101% |
| Cc1onc(-c2ccccc2Cl)c1C(=O)Nc1ccc(S(=O)(=O)N2CCC(C)CC2)cc1 [CBK265463] | 107% |

| SMILES | viability at 28.5 h, 10 µM |
| --- | --- |
| COc1cc(C)c(S(=O)(=O)n2c(C)nc3ccccc32)cc1C [CBK265464] | 94% |
| O=C(/C=C/c1ccc(Cl)cc1)Nc1nnn[nH]1 [CBK265468] | 81.8% |
| O=S(=O)(NCc1ccc(CNS(=O)(=O)c2ccccc2)cc1)c1ccccc1 [CBK265471] | 113% |
| c1ccc(CN2CCN(CCN3CCn4c3nc3ccccc34)CC2)cc1 [CBK265472B] | 97.5% |
| O=C(O)C1C2C=CC(O2)C1C(=O)Nc1ccc2c(c1)OCO2 (stereo not drawn) [CBK265475] | 88.6% |
| O=C(O)C1CCCCC1C(=O)N1CCN(C(c2ccccc2)c2ccccc2)CC1 (stereo not drawn) [CBK265480] | 90.7% |
| S=C(Nc1ccccc1)Nc1nc2ccccc2n1CCOc1ccccc1 [CBK265487] | 113% |
| CC(=O)Nc1ccc(S(=O)(=O)NCCCc2ccccc2)cc1 [CBK265488] | 89.8% |
| O=C(COC(=O)c1ccccc1NC(=O)c1ccccc1)c1ccc2ccccc2c1 [CBK265491] | 94.9% |
| Cc1ccc(OCCOCCN(C)C)c(Cl)c1 [CBK265493G] | 111% |
| Cc1nc(-c2ccc(S(=O)(=O)N3CCC(Cc4ccccc4)CC3)cc2)cs1 [CBK265494] | 108% |
| Cc1ccc(C)c(C(=O)C2=C(O)C(=O)N(CCN(C)C)C2c2cccc(Cl)c2)c1 (stereo not drawn) [CBK265495] | 91.4% |
| O=C1NC(=S)S/C1=C\c1cn(-c2ccccc2)nc1-c1ccc(OCc2ccccc2)cc1 [CBK265496] | 79.4% |
| O=C(/C=C/c1ccc(Cl)cc1Cl)Nc1sc2c(c1C(=O)NCc1cccnc1)CCCC2 [CBK265497] | 99.3% |
| O=C(Nc1sc2c(c1C(=O)NCc1cccnc1)CCCC2)c1ccc(Cl)cc1 [CBK265498] | 88.2% |
| Cc1cccc(C)c1OCC(=O)Nc1cccc(Oc2ccc3c(c2)C(=O)N(c2ccccc2)C3=O)c1 [CBK265499] | 100% |
| O=C(O)c1cc2oc3ccccc3c3ccccc3oc2cc1C(=O)Nc1cccc([N+](=O)[O-])c1 [CBK265500] | 99.1% |
| O=S(=O)(c1ccc(-c2csc(-c3cccnc3)n2)cc1)N1CCCCCC1 [CBK265502] | 106% |
| Cc1ccc(C)c(C(=O)C2=C(O)C(=O)N(CCCN3CCOCC3)C2c2cccc([N+](=O)[O-])c2)c1 (stereo not drawn) [CBK265503] | 86.2% |
| CC(Oc1ccc(F)cc1)C(=O)Nc1ccc(S(N)(=O)=O)cc1 (stereo not drawn) [CBK265506] | 92.3% |
| Cc1cccc(OCC(=O)NCCCc2ccccc2)c1C [CBK265507] | 99.9% |
| CCOc1cc(/C=C2\SC(=S)N(Cc3ccccc3)C2=O)cc(Cl)c1OC(=O)c1ccco1 [CBK265509] | 106% |
| CCOc1cc(/C=C2\SC(=N)NC2=O)ccc1OC(=O)c1cccs1 [CBK265510] | 107% |
| O=[N+]([O-])c1ccccc1OCCNCc1ccccc1 [CBK265511G] | 101% |
| Cc1ccc(C(=O)C(OC(=O)COc2ccccc2C)c2ccccc2)cc1C (stereo not drawn) [CBK265512] | 85.3% |
| O=C(O)c1ccc(NC(=O)c2ccccc2NC(=O)c2cccc(Br)c2)cc1 [CBK265517] | 102% |
| O=C(Nc1ccc(C(=O)OCC(=O)c2cccc3ccccc23)cc1)c1ccccc1 [CBK265518] | 115% |

| SMILES | viability at 28.5 h, 10 µM |
| --- | --- |
| Cc1ccc(C(=O)C(OC(=O)CN2C(=O)c3cccc([N+](=O)[O-])c3C2=O)c2ccccc2)cc1C (stereo not drawn) [CBK265519] | 109% |
| O=C(Cc1ccccc1[N+](=O)[O-])NCCCN1CCOCC1 [CBK265520] | 92% |
| COc1ccccc1Cc1noc(COc2cccc(C)c2C)n1 [CBK265521] | 99.9% |
| O=C(O)c1cccc(NC(=O)c2ccc3c(c2)C(=O)N(Cc2cccnc2)C3=O)c1 [CBK265523] | 88.5% |
| O=C(COC(=O)c1cc(O)nc2ccccc12)c1ccccc1Cl [CBK265524] | 95.2% |
| O=C(OCC(=O)c1cccc2ccccc12)c1cc2ccccc2cc1O [CBK265526] | 102% |
| O=C(NCN1CCN(c2ccccc2F)CC1)c1cccnc1 [CBK265530] | 90% |
| COc1ccccc1N1C(=O)CC(N2CCC(C(N)=O)(N3CCCCC3)CC2)C1=O (stereo not drawn) [CBK265533] | 84.3% |
| C(=C\c1ccccc1)/Cn1c(COc2ccccc2)nc2ccccc21 [CBK265535] | 91.6% |
| O=C1N(CN2CCN(C(c3ccccc3)c3ccccc3)CC2)c2ccccc2C12OCCO2 [CBK265537] | 87.1% |
| Nc1nc(CSCCO)nc(Nc2ccc(F)cc2)n1 [CBK265542] | 98.3% |
| Cc1ccc(C(=O)CCC(=O)CCC(=O)O)cc1 [CBK265546] | 95.6% |
| Cc1cccc(C)c1NC(=O)c1c(NC(=O)c2ccco2)sc2c1CCC(C)C2 (stereo not drawn) [CBK265550] | 107% |
| COc1ccc(-c2c(-c3ccc(O)cc3O)n[nH]c2C)cc1OC [CBK265552] | 81.7% |
| O=C(c1ccc(F)cc1)c1ccc(CSc2nnc3sc4ccccc4n23)cc1 [CBK265553] | 85.9% |
| NS(=O)(=O)c1ccc(NC(=O)CSc2nc3sc4c(c3c(=O)[nH]2)CCC4)cc1 [CBK265554] | 103% |
| NC(=O)C1CCN(C2CC(=O)N(c3cccc([N+](=O)[O-])c3)C2=O)CC1 (stereo not drawn) [CBK265555] | 105% |
| O=C(O)c1ccc2c(c1)C(=O)N(Cc1cccc(CN3C(=O)c4ccc(C(=O)O)cc4C3=O)c1)C2=O [CBK265556] | 113% |
| CCCS(=O)(=O)N1CCN(CCN2C(=O)c3cccc4cccc(c34)C2=O)CC1 [CBK265559] | 81% |
| CC(CC(=O)O)CC(=O)Nc1ccc(C(=O)O)cc1 (stereo not drawn) [CBK265560] | 103% |
| COc1ccc(Br)cc1/C=C/C(=O)NC(=S)Nc1cc(C(=O)O)ccc1Cl [CBK265564] | 90.7% |
| O=C(CCN1C(=O)c2ccccc2C1=O)N(CCO)Cc1ccccc1 [CBK265565] | 110% |
| O=C(CSCc1nc(O)c2c3c(sc2n1)CCCC3)Nc1ccc(F)cc1 [CBK265568] | 106% |
| CC(C)n1c(NCc2nc3ccccc3n2C)nc2ccccc21 [CBK265571] | 83.6% |
| O=C(CN1CCCCC1)Nc1ccc(S(=O)(=O)N2CCOCC2)cc1 [CBK265577] | 90.2% |

Same assay, conditions: human, hela cells, % viability, bulk resorufin, single well

| SMILES | viability at 28.5 h, 10 µM |
| --- | --- |
| CCOc1cc(C=C2C(=O)NC(=S)NC2=O)cc(Br)c1OCC(=O)O [CBK265411] | 98.4% |
| O=C(COc1ccc(/C=C2\C(=O)NC(=O)N(c3ccc(O)cc3)C2=O)cc1Cl)Nc1ccccc1 [CBK265425] | 84.4% |
| O=C(O)COc1ccc(/C=C2\C(=O)NC(=O)N(c3ccc(OCc4ccccc4)cc3)C2=O)cc1 [CBK265449] | 83.6% |
| COC(=O)c1ccc(N2C(=O)NC(=O)/C(=C\c3ccccc3OCC(=O)O)C2=O)cc1 [CBK265459] | 84.7% |
| O=C1C(=CNCCc2c[nH]c3ccccc23)C(=O)N(c2ccccc2)C(=S)N1c1ccccc1 [CBK265557] | 98.5% |
